In article PMC6193938, “Characterization of a novel AICARFT inhibitor which potently elevates ZMP and has anti-tumor activity in murine models” (Scientific Reports, 2018):

What was measured:
Assay in all cases: CEREP protein kinase assay
Format in all cases: biochemical
[1] = biological target: T1, CHK1 (Homo sapiens, UniProt O14757)
T1 construct: purchased CEREP Panlabs (Eurofins)
T1 sequence (O14757 1-476): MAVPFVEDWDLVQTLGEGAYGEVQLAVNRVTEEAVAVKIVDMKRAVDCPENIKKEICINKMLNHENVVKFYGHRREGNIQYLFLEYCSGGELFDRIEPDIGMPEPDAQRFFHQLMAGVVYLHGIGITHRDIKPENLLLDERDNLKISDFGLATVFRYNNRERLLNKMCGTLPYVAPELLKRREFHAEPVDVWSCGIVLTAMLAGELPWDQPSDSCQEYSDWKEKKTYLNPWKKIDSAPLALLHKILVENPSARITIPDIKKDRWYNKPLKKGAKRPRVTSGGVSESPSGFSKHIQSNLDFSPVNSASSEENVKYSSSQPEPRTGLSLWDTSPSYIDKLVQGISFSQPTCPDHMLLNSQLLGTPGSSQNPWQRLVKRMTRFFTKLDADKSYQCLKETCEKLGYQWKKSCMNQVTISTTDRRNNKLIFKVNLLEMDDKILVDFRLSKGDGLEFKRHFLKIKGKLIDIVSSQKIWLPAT

[2] = biological target: T2, EPHA3 (Homo sapiens, UniProt P29320)
T2 construct: purchased CEREP Panlabs (Eurofins)
T2 sequence (P29320 21-983): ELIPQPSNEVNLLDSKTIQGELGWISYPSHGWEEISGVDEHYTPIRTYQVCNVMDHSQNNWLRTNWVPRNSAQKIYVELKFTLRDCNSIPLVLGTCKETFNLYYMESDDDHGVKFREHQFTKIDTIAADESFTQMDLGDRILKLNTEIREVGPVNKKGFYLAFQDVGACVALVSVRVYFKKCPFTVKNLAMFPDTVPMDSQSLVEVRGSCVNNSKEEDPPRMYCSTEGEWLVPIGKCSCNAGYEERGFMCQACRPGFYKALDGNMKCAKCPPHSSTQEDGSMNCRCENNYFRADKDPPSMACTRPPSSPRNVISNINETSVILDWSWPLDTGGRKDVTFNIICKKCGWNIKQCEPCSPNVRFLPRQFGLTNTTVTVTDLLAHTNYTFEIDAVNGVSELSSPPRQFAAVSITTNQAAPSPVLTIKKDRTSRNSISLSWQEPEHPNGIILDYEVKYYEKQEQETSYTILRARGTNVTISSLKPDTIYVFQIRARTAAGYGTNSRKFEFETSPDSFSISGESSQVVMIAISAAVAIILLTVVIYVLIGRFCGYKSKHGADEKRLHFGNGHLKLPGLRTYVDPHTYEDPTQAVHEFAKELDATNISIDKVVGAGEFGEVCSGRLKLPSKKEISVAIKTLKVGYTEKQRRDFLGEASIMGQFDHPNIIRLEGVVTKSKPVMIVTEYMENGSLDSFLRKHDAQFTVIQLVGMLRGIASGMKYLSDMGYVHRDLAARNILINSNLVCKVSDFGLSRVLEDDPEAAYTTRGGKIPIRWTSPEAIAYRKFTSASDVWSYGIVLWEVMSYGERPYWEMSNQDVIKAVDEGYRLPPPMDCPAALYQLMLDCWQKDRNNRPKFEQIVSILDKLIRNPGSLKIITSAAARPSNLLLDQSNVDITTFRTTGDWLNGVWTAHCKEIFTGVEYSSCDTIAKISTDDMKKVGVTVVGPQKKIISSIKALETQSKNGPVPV

[3] = biological target: T3, MAPKAPK5 (Homo sapiens, UniProt Q8IW41)
T3 construct: purchased CEREP Panlabs (Eurofins)
T3 sequence (Q8IW41 1-473): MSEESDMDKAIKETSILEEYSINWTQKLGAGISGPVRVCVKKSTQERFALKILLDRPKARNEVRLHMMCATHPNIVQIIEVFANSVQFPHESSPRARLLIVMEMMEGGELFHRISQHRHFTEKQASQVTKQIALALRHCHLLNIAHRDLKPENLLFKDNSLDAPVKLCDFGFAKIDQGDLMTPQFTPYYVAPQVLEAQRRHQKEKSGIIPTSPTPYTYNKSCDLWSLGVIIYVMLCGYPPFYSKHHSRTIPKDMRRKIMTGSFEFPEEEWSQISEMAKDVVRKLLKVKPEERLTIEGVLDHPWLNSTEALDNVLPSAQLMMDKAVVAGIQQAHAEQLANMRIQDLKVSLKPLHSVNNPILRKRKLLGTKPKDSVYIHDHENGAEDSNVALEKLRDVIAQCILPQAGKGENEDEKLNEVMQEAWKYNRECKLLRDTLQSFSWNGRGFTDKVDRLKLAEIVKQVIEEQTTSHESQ

[4] = biological target: T4, TTK (Homo sapiens, UniProt P33981)
T4 construct: purchased CEREP Panlabs (Eurofins)
T4 sequence (P33981 1-857): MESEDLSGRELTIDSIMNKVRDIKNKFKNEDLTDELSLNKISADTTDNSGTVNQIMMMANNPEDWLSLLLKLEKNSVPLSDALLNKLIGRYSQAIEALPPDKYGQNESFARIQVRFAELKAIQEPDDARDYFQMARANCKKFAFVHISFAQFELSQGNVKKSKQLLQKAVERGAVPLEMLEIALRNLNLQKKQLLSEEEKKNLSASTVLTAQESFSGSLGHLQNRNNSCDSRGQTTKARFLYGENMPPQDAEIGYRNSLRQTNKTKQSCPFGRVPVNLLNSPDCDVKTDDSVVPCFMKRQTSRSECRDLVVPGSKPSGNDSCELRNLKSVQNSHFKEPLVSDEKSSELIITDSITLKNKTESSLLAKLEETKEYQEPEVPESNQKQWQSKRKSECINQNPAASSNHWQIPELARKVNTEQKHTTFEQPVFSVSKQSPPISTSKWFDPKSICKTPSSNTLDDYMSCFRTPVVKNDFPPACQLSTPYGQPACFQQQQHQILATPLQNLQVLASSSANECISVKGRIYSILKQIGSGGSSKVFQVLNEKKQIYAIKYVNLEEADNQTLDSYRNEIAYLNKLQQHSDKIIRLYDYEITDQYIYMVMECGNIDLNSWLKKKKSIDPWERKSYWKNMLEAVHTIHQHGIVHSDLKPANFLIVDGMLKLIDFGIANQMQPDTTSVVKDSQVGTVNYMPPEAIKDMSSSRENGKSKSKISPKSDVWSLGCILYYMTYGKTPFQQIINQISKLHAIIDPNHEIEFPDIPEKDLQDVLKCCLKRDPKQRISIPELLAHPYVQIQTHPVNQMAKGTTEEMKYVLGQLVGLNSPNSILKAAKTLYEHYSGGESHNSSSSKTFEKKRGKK

O=c1[nH]ccc2cc(F)c(NS(=O)(=O)c3ccc(N4CC[C@@H](O)C4)s3)cc12 [LSN3213128, N-(6-Fluoro-1-oxo-1,2-dihydroisoquinolin-7-yl)-5-[(3R)-3-hydroxypyrrolidin-1-yl]thiophene-2-sulfonamide]
inhibition at 0.2 µM ([1]; @ 0.2 uM): -8.96%
inhibition at 2 µM ([1]; @ 2 uM): 14.5%
inhibition at 20 µM ([1]; @ 20 uM): 5.24%
inhibition at 0.2 µM ([2]; @ 0.2 uM): -2.09%
inhibition at 2 µM ([2]; @ 2 uM): 9.04%
inhibition at 20 µM ([2]; @ 20 uM): 51.6%
inhibition at 0.2 µM ([3]; @ 0.2 uM): 3.51%
inhibition at 2 µM ([3]; @ 2 uM): 13.3%
inhibition at 20 µM ([3]; @ 20 uM): -3.2%
inhibition at 0.2 µM ([4]; @ 0.2 uM): -4.62%
inhibition at 2 µM ([4]; @ 2 uM): 6.44%
inhibition at 20 µM ([4]; @ 20 uM): 18.6%
